Experimental data from ChEMBL document CHEMBL4346705, “(±)-trans-Dihydronarciclasine and (±)-trans-dihydrolycoricidine analogues modified in their ring A: Evaluation of their anticancer activity and a SAR study” (2019).

How the values were obtained:
Format in all cases: functional
SNB-75 = assay: Antiproliferative activity against human SNB75 cells assessed as cell viability at 10^-5 M incubated for 48 hrs by sulforhodamine B assay relative to control; settings: SNB-75, 48 h, read-out: Activity
MCF7 = assay: Antiproliferative activity against human MCF7 cells assessed as cell viability at 10^-5 M incubated for 48 hrs by sulforhodamine B assay relative to control; settings: MCF7, 48 h, read-out: Activity
LOX IMVI = assay: Antiproliferative activity against human LOXIMVI cells assessed as cell viability at 10^-5 M incubated for 48 hrs by sulforhodamine B assay relative to control; settings: read-out: Activity
NCI-H522 = assay: Antiproliferative activity against human NCI-H522 cells assessed as cell viability at 10^-5 M incubated for 48 hrs by sulforhodamine B assay relative to control; settings: NCI-H522, 48 h, read-out: Activity
HT-29 = assay: Antiproliferative activity against human HT-29 cells assessed as cell viability at 10^-5 M incubated for 48 hrs by sulforhodamine B assay relative to control; settings: HT-29, 48 h, read-out: Activity
MOLT-4 = assay: Antiproliferative activity against human MOLT4 cells assessed as cell viability at 10^-5 M incubated for 48 hrs by sulforhodamine B assay relative to control; settings: MOLT-4, 48 h, read-out: Activity
SN12C = assay: Antiproliferative activity against human SN12C cells assessed as cell viability at 10^-5 M incubated for 48 hrs by sulforhodamine B assay relative to control; settings: read-out: Activity
NCI-H226 = assay: Antiproliferative activity against human NCI-H226 cells assessed as cell viability at 10^-5 M incubated for 48 hrs by sulforhodamine B assay relative to control; settings: NCI-H226, 48 h, read-out: Activity
SF-295 = assay: Antiproliferative activity against human SF295 cells assessed as cell viability at 10^-5 M incubated for 48 hrs by sulforhodamine B assay relative to control; settings: SF-295, 48 h, read-out: Activity
MDA-MB-231 = assay: Antiproliferative activity against human MDA-MB-231 cells assessed as cell viability at 10^-5 M incubated for 48 hrs by sulforhodamine B assay relative to control; settings: MDA-MB-231, 48 h, read-out: Activity
SK-MEL-28 = assay: Antiproliferative activity against human SK-MEL-28 cells assessed as cell viability at 10^-5 M incubated for 48 hrs by sulforhodamine B assay relative to control; settings: SK-MEL-28, 48 h, read-out: Activity
SK-MEL-5 = assay: Antiproliferative activity against human SK-MEL-5 cells assessed as cell viability at 10^-5 M incubated for 48 hrs by sulforhodamine B assay relative to control; settings: SK-MEL-5, 48 h, read-out: Activity
EKVX = assay: Antiproliferative activity against human EKVX cells assessed as cell viability at 10^-5 M incubated for 48 hrs by sulforhodamine B assay relative to control; settings: read-out: Activity
SF-539 = assay: Antiproliferative activity against human SF539 cells assessed as cell viability at 10^-5 M incubated for 48 hrs by sulforhodamine B assay relative to control; settings: SF-539, 48 h, read-out: Activity
KM12 = assay: Antiproliferative activity against human KM12 cells assessed as cell viability at 10^-5 M incubated for 48 hrs by sulforhodamine B assay relative to control; settings: KM12, 48 h, read-out: Activity
NCI-H322M = assay: Antiproliferative activity against human NCI-H322M cells assessed as cell viability at 10^-5 M incubated for 48 hrs by sulforhodamine B assay relative to control; settings: read-out: Activity
OVCAR-8 = assay: Antiproliferative activity against human OVCAR8 cells assessed as cell viability at 10^-5 M incubated for 48 hrs by sulforhodamine B assay relative to control; settings: OVCAR-8, 48 h, read-out: Activity
A498 = assay: Antiproliferative activity against human A498 cells assessed as cell viability at 10^-5 M incubated for 48 hrs by sulforhodamine B assay relative to control; settings: A498, 48 h, read-out: Activity
RXF 393 = assay: Antiproliferative activity against human RXF393 cells assessed as cell viability at 10^-5 M incubated for 48 hrs by sulforhodamine B assay relative to control; settings: RXF 393, 48 h, read-out: Activity
NCI/ADR-RES = assay: Antiproliferative activity against human NCI-ADR-RES cells assessed as cell viability at 10^-5 M incubated for 48 hrs by sulforhodamine B assay relative to control; settings: read-out: Activity
Hs-578T = assay: Antiproliferative activity against human Hs 578T cells assessed as cell viability at 10^-5 M incubated for 48 hrs by sulforhodamine B assay relative to control; settings: read-out: Activity
UACC-62 = assay: Antiproliferative activity against human UACC62 cells assessed as cell viability at 10^-5 M incubated for 48 hrs by sulforhodamine B assay relative to control; settings: UACC-62, 48 h, read-out: Activity
SK-MEL-2 = assay: Antiproliferative activity against human SK-MEL-2 cells assessed as cell viability at 10^-5 M incubated for 48 hrs by sulforhodamine B assay relative to control; settings: SK-MEL-2, 48 h, read-out: Activity
NCI-H23 = assay: Antiproliferative activity against human NCI-H23 cells assessed as cell viability at 10^-5 M incubated for 48 hrs by sulforhodamine B assay relative to control; settings: NCI-H23, 48 h, read-out: Activity
HOP-62 = assay: Antiproliferative activity against human HOP62 cells assessed as cell viability at 10^-5 M incubated for 48 hrs by sulforhodamine B assay relative to control; settings: HOP-62, 48 h, read-out: Activity
OVCAR-4 = assay: Antiproliferative activity against human OVCAR4 cells assessed as cell viability at 10^-5 M incubated for 48 hrs by sulforhodamine B assay relative to control; settings: OVCAR-4, 48 h, read-out: Activity
CAKI-1 = assay: Antiproliferative activity against human Caki1 cells assessed as cell viability at 10^-5 M incubated for 48 hrs by sulforhodamine B assay relative to control; settings: CAKI-1, 48 h, read-out: Activity
MDA-MB-468 = assay: Antiproliferative activity against human MDA-MB-468 cells assessed as cell viability at 10^-5 M incubated for 48 hrs by sulforhodamine B assay relative to control; settings: MDA-MB-468, 48 h, read-out: Activity

| Compound | viability at 10 µM (SNB-75) | viability at 10 µM (MCF7) | viability at 10 µM (LOX IMVI) | viability at 10 µM (NCI-H522) | viability at 10 µM (HT-29) | viability at 10 µM (MOLT-4) | viability at 10 µM (SN12C) | viability at 10 µM (NCI-H226) | viability at 10 µM (SF-295) | viability at 10 µM (MDA-MB-231) | viability at 10 µM (SK-MEL-28) | viability at 10 µM (SK-MEL-5) | viability at 10 µM (EKVX) | viability at 10 µM (SF-539) | viability at 10 µM (KM12) | viability at 10 µM (NCI-H322M) | viability at 10 µM (OVCAR-8) | viability at 10 µM (A498) | viability at 10 µM (RXF 393) | viability at 10 µM (NCI/ADR-RES) | also measured |
| --- | --- | --- | --- | --- | --- | --- | --- | --- | --- | --- | --- | --- | --- | --- | --- | --- | --- | --- | --- | --- | --- |
| COc1cc2c(c(OC)c1OC)C(=O)NC1C2CC(O)C(O)C1O (racemic) | 102% | 96.1% | 97.7% | 97.7% | 107% | 104% | 104% | 102% | 98.3% | 106% | 111% | 104% | 103% | 100% | 108% | 104% | 97.3% | 112% | 102% | 108% | viability at 10 µM (Hs-578T): 108%; viability at 10 µM (UACC-62): 94.1%; viability at 10 µM (SK-MEL-2): 117%; viability at 10 µM (NCI-H23): 106%; viability at 10 µM (HOP-62): 102%; viability at 10 µM (OVCAR-4): 107%; viability at 10 µM (CAKI-1): 94.1%; viability at 10 µM (MDA-MB-468): 102% |
| COc1c2c(cc3c1C(=O)NC1C3CC(O)C(O)C1O)OCCO2 (racemic) | 99.3% | 93.9% | 101% | 93.5% | 106% | 99.6% | 103% | 92.7% | 99.6% | 109% | 106% | 99% | 98.2% | 106% | 99.1% | 93.5% | 100% | 104% | 102% | 113% | viability at 10 µM (Hs-578T): 96.2%; viability at 10 µM (UACC-62): 96.7%; viability at 10 µM (SK-MEL-2): 100%; viability at 10 µM (NCI-H23): 104%; viability at 10 µM (HOP-62): 99.9%; viability at 10 µM (OVCAR-4): 105%; viability at 10 µM (CAKI-1): 94%; viability at 10 µM (MDA-MB-468): 93.1% |
| CCOc1cc2c(c(OCC)c1OCC)C(=O)NC1C2CC(O)C(O)C1O (racemic) | 93% | 95.6% | 98.7% | 89.2% | 104% | 99.2% | 108% | 96.3% | 100% | 121% | 107% | 107% | 97.3% | 97% | 103% | 97.8% | 102% | 102% | 110% | 108% | viability at 10 µM (Hs-578T): 99.1%; viability at 10 µM (UACC-62): 101%; viability at 10 µM (SK-MEL-2): 99.2%; viability at 10 µM (NCI-H23): 101%; viability at 10 µM (HOP-62): 102%; viability at 10 µM (OVCAR-4): 105%; viability at 10 µM (CAKI-1): 94.2%; viability at 10 µM (MDA-MB-468): 107% |
| CCOc1cc2c(cc1OCC)C1CC(O)C(O)C(O)C1NC2=O (racemic) | 98.9% | 94.4% | 92.8% | 89.5% | 106% | 96.5% | 100% | 97.8% | 94.9% | 103% | 110% | 99.6% | 102% | 98% | 104% | 95.2% | 97.9% | 111% | 105% | 101% | viability at 10 µM (Hs-578T): 99.6%; viability at 10 µM (UACC-62): 96.1%; viability at 10 µM (SK-MEL-2): 100%; viability at 10 µM (NCI-H23): 96.1%; viability at 10 µM (HOP-62): 99.2%; viability at 10 µM (OVCAR-4): 107%; viability at 10 µM (CAKI-1): 87%; viability at 10 µM (MDA-MB-468): 94.2% |
| CCOc1cc2c(c(O)c1OCC)C(=O)NC1C2CC(O)C(O)C1O (racemic) | 93.4% | 90.9% | 98.5% | 92.6% | 99.7% | 103% | 103% | 105% | 98.7% | 103% | 105% | 102% | 99.7% | 102% | 106% | 97.6% | 97% | 98.7% | 104% | 107% | viability at 10 µM (Hs-578T): 89.9%; viability at 10 µM (UACC-62): 93%; viability at 10 µM (SK-MEL-2): 109%; viability at 10 µM (NCI-H23): 102%; viability at 10 µM (HOP-62): 101%; viability at 10 µM (OVCAR-4): 103%; viability at 10 µM (CAKI-1): 95.7%; viability at 10 µM (MDA-MB-468): 94.8% |
